The values below are quoted from earlier work in patent US10937641B2, “MALDI mass spectrometry method” (BiosparQ B.V., priority 2017, dated 2021).

In brackets after ≈: the same amount, converted by molar mass.

The conditions of this series: solubility defined at room temperature as intrinsic solubility.

Regarding `N#CC(=Cc1ccc(O)cc1)C(=O)O` [αCHCA, α-cyano-4-hydroxycinnamic acid], the solubility in water was 6000 µg/mL (≈ 31.7 mM).
